Source: patent US4150137A, “Pyridylalkyl esters of 2-(p-isobutylphenyl)acetic acid and propionic acids and use” (Hisamitsu Pharmaceutical Co. Inc., priority 1975, dated 1979)

Key:
[1] = system: carrageenin-induced leakage of the pigment, dorsal skin; assay: Anti-inflammatory activity for topical route (carrageenin, leakage of pigment in dorsal skin); assay type: in vivo, rat (Wistar-strain); settings: 1% in polyethylene glycol 300, percent inhibition divided by that of ibuprofen
Procedure: The dorsal skin of male rats of Wistar-strain(body weight: about 100 g) were depilated. Carrageenin suspension was injected intra-dermally at a dose of 250 γ/0.05 ml/site. […] Immediately after injection, the filter paper containing 125.2±18.0 mg of the polyethylene glycol was applied on the injected site. After 3 hours, 1% pontamine sky blue solution was injected intravenously at a dose of 0.5 ml/kg. After further 3 hours, the animals were sacrificed and their dorsal skin were removed to measure the area of leakage of the pigment. The percent inhibition was determined with respect to the results for the control animals.

carrageenin edema = assay: Anti-inflammatory activity for oral route (carrageenin edema, hind paw); assay type: in vivo, rat (Wistar-strain); settings: percent inhibition divided by that of ibuprofen, carrageenin edema after 3 hours; for anti-inflammatory effect, oral, 10 mg/kg (relative inhibition, ibuprofen = 1.0): 10 mg/kg oral; for anti-inflammatory effect, oral, 50 mg/kg (relative inhibition, ibuprofen = 1.0): 50 mg/kg oral
Procedure: After 30 minutes 0.5-1.0% carrageenin suspended in the water for injection was injected subcutaneously to a hind paw. After 3 hours the carrageenin edema was measured by volume, and the percent inhibition was determined with respect to the results for the control animals.

male mice of dd-strain = assay type: in vivo; settings: death of animals 72 hours following administration
Procedure: Each test compound suspended in 0.5% tragacanth-saline was administered intraperitoneally or orally to male mice of dd-strain(body weight 16-24 g). The lethal dose was estimated from the death of animals 72 hours following administration.

writhing syndrome = assay: Analgetic activity (acetic acid writhing syndrome); assay type: in vivo, mouse (dd-strain); settings: Mus musculus, 1 h; oral, mice, 0.6% acetic acid i.p. one hour later; Litchfield-Wilcoxon; read-out: analgetic effect ED50 (95% C.L.)
Procedure: Each test compound suspended in 0.5% tragacanth-saline was orally administered to dd-strain mice(body weight: 18-20 g). After one hour 0.6% acetic acid solution was injected intraperitoneally in a volume of 0.1 ml/10 g.

Row | SMILES | anti-inflammatory effect, topical (relative inhibition, ibuprofen = 1.0) [1] | anti-inflammatory effect, oral, 10 mg/kg (relative inhibition, ibuprofen = 1.0) (carrageenin edema) | anti-inflammatory effect, oral, 50 mg/kg (relative inhibition, ibuprofen = 1.0) (carrageenin edema) | acute toxicity, oral (lethal dose) (male mice of dd-strain) | ED50 (writhing syndrome)
1 | CCOCCOC(=O)C(C)c1ccc(CC(C)C)cc1 (stereo not shown) [Compound 15] | 1.2 | 0.7 | 0.9 | > 2000 mg/kg | 156 mg/kg
2 | CCOCOC(=O)C(C)c1ccc(CC(C)C)cc1 (stereo not shown) [Compound 13] | 2.8 | 1.3 | 1.0 | > 2000 mg/kg | 155 mg/kg
3 | CC(C)Cc1ccc(C(C)C(=O)OCc2ccncc2)cc1 (stereo not shown) | 2.7 | 1.0 | 1.2 | > 2000 mg/kg | 87.1 mg/kg
4 | CC(C)Cc1ccc(C(C)C(=O)OCC2CCCO2)cc1 (stereo not shown) | 3.1 | 0.6 | 0.9 | 1000 to 2000 mg/kg | 91.6 mg/kg
5 | CC(C)Cc1ccc(C(C)C(=O)OCc2cccnc2Cl)cc1 (stereo not shown) | 1.8 | 0.8 | 2.5 | > 2000 mg/kg | 762 mg/kg
